From ChEMBL document CHEMBL1201862, “PubChem BioAssay data set” (2004)
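48-hour exposure; five concentrations; linearly interpolated endpoints. GI50: concentration for 50% inhibition of growth.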 The source made the active and inactive calls. No stated cut-off is given here; in the data, active = GI50 up to about 1.1 µM and inactive = higher. Non-standard residues stand in square brackets, D forms with d. Residues, ends and D or L forms follow the SMILES beside them. *: point of attachment. NMeF = CN[CH](Cc1ccccc1)C(=O)O; NMeV = CN[CH](C(=O)O)C(C)C; Boc = CC(C)(C)OC(=O)*

Columns and labels:
Assay in all cases: DTP human tumour cell line panel, 48 h
[1] = system: BT-549
[2] = system: Hs-578T
[3] = system: DMS-114
[4] = system: XF498
[5] = system: SNB-78
[6] = system: HOP-18
[7] = system: KM-20L2
[8] = system: M19-MEL

COc1ccc(/C=C2\CCS(=O)(=O)c3ccccc3C2=O)cc1
GI50 [1]: 31.8 µM (inactive)
GI50 [2]: 31.3 µM (inactive)

COC(=O)/C=C1\C(=O)C=C2[C@@H]3C[C@H]4C[C@H](CC[C@@]4(C)N21)C3(C)NC(C)=O (stereo partly drawn)
GI50 [1]: 11.1 µM (inactive)
GI50 [2]: 10.9 µM (inactive)

Oc1ccc(Cl)cc1Cc1cc(Cl)cc(Cc2cc(Cl)ccc2O)c1O
GI50 [1]: 2.79 µM (inactive)
GI50 [2]: 1.88 µM (inactive)

C[C@@H]1C[C@@H](O)[C@@]2(O)C13CC(=O)OC(C3)[C@@H](C)[C@@]2(C)CO (stereo partly drawn)
GI50 [2]: > 100 µM (inactive)

Nc1nc(=O)[nH]c2c1cnn2COCCO
GI50 [3]: > 100 µM (inactive)
GI50 [4]: > 100 µM (inactive)
GI50 [5]: 21.5 µM (inactive)
GI50 [6]: > 100 µM (inactive)
GI50 [7]: 2.33 µM (inactive)

O=C(c1ccco1)N(C(=O)N1CCC(c2ccccc2)CC1)c1ccccc1
GI50 [1]: 33.7 µM (inactive)
GI50 [2]: 60.4 µM (inactive)

CCN(CC)CCN1C(=O)c2cccc3cc(N)cc(c23)C1=O
GI50 [1]: 16.1 µM (inactive)
GI50 [2]: 22.7 µM (inactive)

CCOC(=O)[C@@]12C[C@](/C=C/OC)(O[Si](C)(C)C)[C@@]13c1cc(OC)c(OC)cc1CCN3C(=O)C2O (stereo partly drawn)
GI50 [2]: 5.98 µM (inactive)

COC(=O)N1CC[C@@H]2CCC=C(c3cccc4c3OCO4)[C@@H]21
GI50 [1]: 81.5 µM (inactive)
GI50 [2]: > 100 µM (inactive)

CN(C)c1ccc(/C=C/C=C\c2cc(/C=C/C=C/c3ccc(N(C)C)cc3)[s+]c3ccccc23)cc1.[O-][Cl+3]([O-])([O-])[O-]
GI50 [8]: 15.5 µM (inactive)
GI50 [3]: 11.1 µM (inactive)
GI50 [5]: 51.4 µM (inactive)
GI50 [7]: > 100 µM (inactive)

C=CCN(CCN(CC=C)S(=O)(=O)c1ccc(C)cc1)S(=O)(=O)c1ccc(C)cc1
GI50 [2]: > 100 µM (inactive)

COC(=O)c1cn(CCCC(=O)O)nn1
GI50 [1]: > 100 µM (inactive)
GI50 [2]: > 100 µM (inactive)

CC(C)C(NC(=O)OC(C)(C)C)C(=O)N(C)C(Cc1ccccc1)C(=O)N(C)C(C(=O)N(C)C(C(=O)O)C(C)C)C(C)C (stereo not drawn) (Boc-V[NMeF][NMeV][NMeV]-OH; configuration not given here)
GI50 [8]: > 100 µM (inactive)
GI50 [3]: > 100 µM (inactive)
GI50 [4]: > 100 µM (inactive)
GI50 [7]: > 100 µM (inactive)

O=C1C=C(NCCc2cc(Br)c(O)c(Br)c2)C(=O)c2[nH]cnc21
GI50 [2]: 7.35 µM (inactive)

COC1=CC(=O)c2c(c(COP(=O)(N(C)CCBr)N(C)CCBr)cn2C)C1=O
GI50 [1]: 0.078 µM (active)
GI50 [2]: 0.392 µM (active)

COc1cc2c(oc(=O)c3cc4ccoc4c(OC)c32)c2cccc(O)c12
GI50 [8]: > 100 µM (inactive)
GI50 [3]: > 100 µM (inactive)
GI50 [4]: > 100 µM (inactive)
GI50 [5]: > 100 µM (inactive)
GI50 [6]: > 100 µM (inactive)
GI50 [7]: > 100 µM (inactive)

O=[N+]([O-])c1ccc(CSc2c3ccccc3nc3ccccc23)cc1
GI50 [1]: 18.8 µM (inactive)
GI50 [2]: 3.21 µM (inactive)

CN(C)CCCNC(=O)c1cccc2ccccc12
GI50 [8]: > 10 µM (inactive)
GI50 [3]: > 100 µM (inactive)
GI50 [4]: > 100 µM (inactive)
GI50 [5]: > 100 µM (inactive)

O=C(CCN1CCCCC1)Nc1ccc2sc3ccccc3c(=O)c2n1
GI50 [1]: 15.5 µM (inactive)
GI50 [2]: 19.9 µM (inactive)

O=C(O)Cc1ccc(Oc2nc3ccccc3nc2-c2cccs2)cc1
GI50 [1]: 30.5 µM (inactive)
GI50 [2]: 61.7 µM (inactive)

CCOC(=O)c1ccc(N2C(=O)Cc3ccccc3C2=O)cc1
GI50 [8]: > 100 µM (inactive)
GI50 [3]: > 100 µM (inactive)
GI50 [5]: > 100 µM (inactive)
GI50 [7]: > 100 µM (inactive)

CC(C)OP(=O)(OC(C)C)/C(C#N)=C/c1c[nH]c2ccccc12
GI50 [1]: 31 µM (inactive)
GI50 [2]: > 100 µM (inactive)

CCOC(=O)NC(Nc1cc(Cl)ccc1OC)(C(F)(F)F)C(F)(F)F
GI50 [1]: > 100 µM (inactive)
GI50 [2]: > 100 µM (inactive)

CCN1C(NN)=NS(=O)(=O)c2ccccc21
GI50 [1]: > 100 µM (inactive)
GI50 [2]: > 100 µM (inactive)

C[C@H]1SC(c2ccc(Cl)cc2Cl)N(NC(=O)c2ccncc2)C1=O (stereo partly drawn)
GI50 [1]: 36.6 µM (inactive)
GI50 [2]: 64.7 µM (inactive)

COc1ccc(-c2cc(-c3ccncc3)nc(N)c2-c2ccc(F)cc2)cc1
GI50 [1]: 37.4 µM (inactive)
GI50 [2]: > 100 µM (inactive)

CO[C@]12CC(=O)C3(C(C[C@H]4CC5CC=C6C[C@@H](OC(C)=O)CC[C@]6(OC(C)=O)C5C[C@@]43C)C1)C1C[C@H]3[C@@H]4CC=C5C[C@@H](OC(C)=O)CC[C@]5(OC(C)=O)[C@H]4CC[C@]3(C)C12 (stereo partly drawn)
GI50 [2]: 32.2 µM (inactive)

O=C(CCO)OCCCCCC/C=C\CCCCCC/C=C\CCCCCCCCOC(=O)CCO
GI50 [1]: 19 µM (inactive)

O=C1C2=C(CCC2)Nc2cccc3ncn1c23
GI50 [8]: > 100 µM (inactive)
GI50 [3]: > 100 µM (inactive)
GI50 [4]: 34.8 µM (inactive)
GI50 [5]: > 100 µM (inactive)
GI50 [6]: 10.6 µM (inactive)
GI50 [7]: 41.9 µM (inactive)

Cc1c(/N=C/C=C/c2ccccc2)c(=O)n(-c2ccccc2)n1C
GI50 [1]: 22.8 µM (inactive)
GI50 [2]: 23.1 µM (inactive)

COc1cc(C2=C(C#N)C(N)OC3=C2COc2ccccc23)cc(OC)c1OC (stereo not drawn)
GI50 [1]: 42.8 µM (inactive)

S=C1SC(=N\c2ccccc2)/C(=N/c2ccccc2)N1c1ccc2ccccc2c1
GI50 [1]: > 100 µM (inactive)
GI50 [2]: 64.1 µM (inactive)

Cc1cc(C)[n+](CCOc2ccc(/C(=C(/Cl)c3ccccc3)c3ccccc3)cc2)c(C)c1.[O-][Cl+3]([O-])([O-])[O-]
GI50 [8]: 0.495 µM (active)
GI50 [3]: 1.29 µM (inactive)
GI50 [4]: 0.256 µM (active)
GI50 [5]: 2 µM (inactive)
GI50 [7]: 0.847 µM (active)

CCOC(=O)c1[nH]cc(C)c1-c1ccn(-c2ccccc2)c1
GI50 [1]: 43.4 µM (inactive)
GI50 [2]: 25.9 µM (inactive)
